Non-standard residues stand in square brackets, D forms with d. Residues, ends and D or L forms follow the SMILES beside them.
What was measured:
TNF alpha = TNF alpha production assay (LPS-stimulated macrophages, ELISA); assay type: cell-based, human; settings: macrophages from PBMC, peptide 10 micrograms per ml, lipopolysaccharide 200 ng/ml, overnight
Description: Human Peripheral Blood Mononuclear Cells (PBMC) were obtained from normal human donors. The macrophages were prepared by adherence of PBMC to the plastic wells of the plates. After 8 days in culture in the presence of recombinant human macrophage-colony stimulating factor at 2 ng/ml, differentiated macrophages were preincubated with test peptide—10 micrograms per ml—for 30 min, followed by in-well stimulation by the addition of lipopolysaccharide at a final concentration of 200 ng/ml. Not stimulated macrophages served as negative background control.
After overnight incubation, supernatants from the control and LPS-stimulated cultures were harvested and assayed for TNF alpha production employing a TNF alpha specific ELISA.

HCMV strain AD169 = experiment: HCMV plaque reduction assay in MRC-5 cells; settings: HCMV in MRC-5 cells; peptide 10 micrograms per ml; 7-10 days
[1] = Cytotoxicity in HIV-1 assay (MTS cell viability); settings: human, CEM-SS cells (uninfected, cells plus peptide only)
[2] = tested on: Primary Human endothelial cells (HUVEC); experiment: Endothelial cell migration assay; assay type: cell-based; settings: peptide 10 micrograms per ml, 22 hours
Description: Endothelial cell migration is a prerequisite for the process of neo-vascularization or angiogenesis which is crucial for on-site recruitment of blood vessel formation. Primary Human endothelial cells (HUVEC) were seeded in insert chambers with 3 micrometer pore size of multi-transwell plate for 6 hours at 37° C. in Endothelial Cell Basal Medium (EBM) supplemented with 0.1% bovine serum albumin. Thereafter, designated concentration of test peptide—10 micrograms per ml—was added in duplicate wells. The endothelia were allowed to migrate for 22 hours at 37° C., then, migrated cells were fixed and stained with Hoechst 33342 dye. Images of 3 fields per insert were taken and the number of migrated cells per field were quantified using the ImageProPlus software. Data were analyzed for the average number of the migrated cells and standard deviation of six data points for each treatment condition. Active test peptide against HUVEC migration was determined based on 50% inhibition of migrated cells as compared with the control. Statistic p values were computed using the Student's t-test.

[3] = Cytotoxicity in HCMV assay (CellTiter 96 cell viability); settings: human, MRC-5 cells (embryonal lung fibroblasts)
Description: For cytotoxicity testing, MRC-5 cells were seeded at 2,500 cells/well in 96 well plates using growth medium. […] The following day, peptide was added and tested in duplicates. After a 6 days incubation period, cell viability was measured using CellTiter 96 Solution (Promega). Plates were incubated for additional 4 hours at 37° C. Adhesive plate sealers were used in place of lids, the sealed plates were inverted several times to mix the soluble formazan product and the plate was read spectrophotometrically at 490/560 nm with a Molecular Devices Vmax plate reader.

[4] = tested on: hepatitis B virus (HBV) ayw strain; experiment: HBV assay, secreted HBV DNA by TaqMan PCR in HepG2-2.2.15; settings: peptide 10 micrograms per ml; six days; HBV DNA in supernatant
HIV-1IIIB = experiment: HIV-1 antiviral assay (CPE reduction, MTS); assay type: cell-based; settings: peptide 10 micrograms per ml, 6 days post-infection
RAW 264.7 cells = experiment: Phagocytosis assay (Fluorescein-labeled Escherichia coli, flow cytometry); assay type: cell-based, mouse; settings: peptide 10 micrograms per ml, 30 min preincubation, 60 min ingestion
Description: RAW 264.7 (Mouse leukaemic monocyte macrophage cell line) cells were obtained from ATCC and grown in RPMI 1640 medium containing 10% FBS. Cells were incubated in 12×75 mm tubes at 37° C. with test peptide—10 micrograms per ml—for 30 min prior to adding Fluorescein-labeled Escherichia coli bacteria as the agent to be ingested. After the cells were incubated for additional 60 min at 37° C. and allowed to ingest the Fluorescein-labeled Escherichia coli bacteria, cells were fixed with 1% paraformaldehyde. The samples were then analyzed by flow cytometry to determine the amount of phagocytosis as a function of brightness (the greater the phagocytic activity, the more fluorescence in the macrophage population). Data are reported as % positive and the mean fluorescence intensity (MFI) of positively stained cells.

in vitro = settings: human
HUVEC = experiment: Endothelial tube formation assay; assay type: cell-based, human; settings: peptide 10 micrograms per ml, 20 hours
Description: The endothelial tube formation assay is based on the ability of endothelial cells to form three-dimensional capillary-like tubular structures when cultured on a gel of basement membrane extract. The endothelial tube formation assay represents a powerful model for studying inhibition and induction of angiogenesis. Pre-labeled HUVEC with Calcein AM were seeded in a 96-well culture plate coated with extracellular metrix (Chemicon international Cat. ECM625) and treated with test peptide—10 micrograms per ml—in full growth medium. […] control was vehicle only. The endothelial cells were allowed to form tubes for 20 hours and were then examined under an inverted fluorescent microscope. Duplicate wells for each treatment were photographed and quantitatively analyzed for an average tubule length using image analysis software ImageProPlus. Raw data were expressed as average tubule lengths in pixels ±standard deviation. Statistic p values were computed using the Student's t-test.

spleen cells = experiment: Th1/Th2 cytokine profiling assay (Ovalbumin restimulated spleen cells, CBA kit); assay type: cell-based, Balb/c mice; settings: peptide 10 micrograms per ml; Ovalbumin 10 micrograms/ml restimulation; 72 hours
Text: The Balb/c mice (originated in 1923, it is a popular strain and is used in many different research disciplines. Also classified as an inbred from the production of 20 or more successive brother-sister matings, the Balb/c mouse is albino and small in size) were immunized on Days 1, 15, and 29 with Ovalbumin (Ovalbumin is the main protein found in egg white, commonly used to stimulate an immunological reaction in test animals) in PBS (5 micrograms/injection). On day 50, spleens of the mice were harvested (3 weeks after last boost with Ovalbumin). Cells were cultured (2×10^5/well in triplicate) and incubated with culture medium or test peptide—10 micrograms per ml—for 30 min. Thereafter, additional Ovalbumin was added to the cells at 10 micrograms/ml for in vitro restimulation of the cells. 72 hours later, cell supernatants were harvested and assayed using the Becton Dickinson Mouse Th1/Th2 Cytokine CBA Kit. This kit can be used to measure Interleukin-2 (IL-2), Interleukin-4 (IL-4), Interleukin-5 (IL-5), Interferon-γ (IFN-γ), and Tumor Necrosis Factor-α (TNF-α) protein levels in a single sample. The kit performance has been optimized for analysis of physiologically relevant concentrations ([…] levels) of specific cytokine proteins in tissue culture supernatants and serum samples.

Compound: CC(C)C[C@H](NC(=O)[C@H](CC(C)C)NC(=O)[C@@H](Cc1c[nH]c2ccccc12)NC(=O)[C@H](Cc1ccccc1)NC(=O)[C@@H](Cc1c[nH]c2ccccc12)NC(=O)[C@H](CCC(N)=O)NC(=O)[C@H](CCC(N)=O)NC(=O)[C@@H]1CCCN1C(=O)[C@H](CCCCN)NC(=O)[C@@H]1CCCN1C(=O)[C@@H](CCCNC(=N)N)NC(=O)[C@@H]1CCCN1C(=O)CNC(=O)[C@H](CC(C)C)NC(=O)[C@H](CC(C)C)NC(=O)[C@H](Cc1ccc(O)cc1)NC(=O)CNC(=O)[C@H](C)NC(=O)[C@H](CO)NC(=O)[C@H](CC(N)=O)NC(=O)[C@H](CC(C)C)NC(=O)[C@@H](NC(=O)[C@H](Cc1c[nH]c2ccccc12)NC(=O)CN)[C@@H](C)O)C(N)=O [Spantide-I, Gly-Trp-Thr-Leu-Asn-Ser-Ala-Gly-Tyr-Leu-Leu-Gly-Pro-D-Arg-Pro-Lys-Pro-Gln-Gln-D-Trp-Phe-D-Trp-Leu-Leu-NH2] (H-GWTLNSAGYLLGP[dR]PKPQQ[dW]F[dW]LL-NH2)
- % of LPS induction (TNF alpha): 101.4%
- % plaque reduction (HCMV strain AD169): 0.0%
- viability at 10 micrograms per ml [1]: 100%
- % inhibition of migration [2]: −25%
- viability at 144 h [3]: 100%
- % inhibition of HBV replication in HEP G2 cells [4]: 14.1%
- % CPE reduction in HIV-1 infected CEM-SS cells (HIV-1IIIB): 0.0%
- % of control phagocytosis (RAW 264.7 cells): 102.9%
- viability at 144 h, 10 micrograms per ml (in vitro): 100%
- % inhibition of tube formation (HUVEC): 1%
- IFNγ spleen cells; TH1 response (% of control) (spleen cells): 43.1 % of control
- IL-2 spleen cells (% of control) (spleen cells): 25.9 % of control
- IL-4 spleen cells; TH2 response (% of control) (spleen cells): 40.5 % of control
- IL-5 spleen cells; TH2 response (% of control) (spleen cells): 64.5 % of control
- TNF-a spleen cells; TH1 response (% of control) (spleen cells): 61.9 % of control
